Test results published in PubChem BioAssay (NCI).
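These data come from cells grown in 96-well plates and exposed to compound for 48 hours at five concentrations. GI50 marks 50% less growth. The concentration for full growth arrest is given as TGI.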

How the values were obtained:
Test in all cases: NCI tumour cell line growth inhibition, 48 h
EKVX NSCLC = test system: EKVX NSCLC
SN12C renal = test system: SN12C renal
UACC-62 melanoma = test system: UACC-62 melanoma
DLD-1 colon = test system: DLD-1 colon
DMS 114 small cell lung = test system: DMS 114 small cell lung
DMS 273 small cell lung = test system: DMS 273 small cell lung
HOP-18 NSCLC = test system: HOP-18 NSCLC
KM20L2 colon = test system: KM20L2 colon
M19-MEL melanoma = test system: M19-MEL melanoma
P388 leukemia = test system: P388 leukemia
P388/ADR leukemia = test system: P388/ADR leukemia
SN12K1 renal = test system: SN12K1 renal
XF 498 CNS = test system: XF 498 CNS
SNB-78 CNS = test system: SNB-78 CNS
RXF-631 renal = test system: RXF-631 renal
LXFL 529 NSCLC = test system: LXFL 529 NSCLC

SMILES	TGI (EKVX NSCLC) [µM]	TGI (SN12C renal) [µM]	TGI (UACC-62 melanoma) [µM]	further results
CC(=O)CC(=O)c1cc2c(=O)oc(C)cc2oc1=O	> 37.5	> 37.5	> 37.5	
CCn1c(=O)c2c3cc(O)ccc3oc2c2ccc(O)cc21	62.6	> 100	> 100	
N#Cc1c2c(c(Nc3ccc(F)cc3)n3c1nc1ccccc13)CCC2	26	4.59	25.1	
CCOC(=O)c1c(N)n(-c2ccccc2)c(=S)n(-c2ccccc2)c1=O		> 100	> 100	
CO/N=C1/c2sccc2[C@H](NC(=O)CNC(=O)OC(C)(C)C)[C@@H]1O	> 100	> 100	> 100	
O=C(CCc1ccc(O)cc1)c1c(O)cc(O)cc1OC1OC(CO)C(O)C(O)C1O (stereo unspecified)	> 100		> 100	
COc1cccc(C2c3cc4c(cc3OC(N3CCCC3)C2C)OCO4)c1OC (stereo unspecified)	97.8	14.5	34.5	
COc1cc2c(cc1OC)C(=O)/C(=C/c1cc(C)c(O)c(C)c1)C2	> 100	> 100	> 100	
NCCCC(N)C(=O)O (stereo unspecified)	> 100	> 100	> 100	
CC(C)=CC1C(C(=O)O)C1(C)C (stereo unspecified)	> 750	> 750	> 750	TGI (DLD-1 colon): > 750 µM; TGI (DMS 114 small cell lung): > 750 µM; TGI (DMS 273 small cell lung): > 750 µM; TGI (HOP-18 NSCLC): > 750 µM; TGI (KM20L2 colon): > 750 µM; TGI (M19-MEL melanoma): > 750 µM; TGI (P388 leukemia): > 750 µM; TGI (P388/ADR leukemia): > 750000 nM; TGI (SN12K1 renal): > 750 µM; TGI (XF 498 CNS): > 75 µM
O=C1NC(=S)NC(=O)C1C(c1ccccc1[N+](=O)[O-])C1C(=O)NC(=S)NC1=O		> 100	> 100	
COc1cccc(-c2nc(-c3cnccn3)n(Cc3ccccc3)n2)c1	> 100	> 100	> 100	
C=CC/C(C(=O)OC)=C(/C(=O)OC)N(CCC)CCC	> 100	> 100	> 100	
CN1CN(c2ccccc2)C2(CCN(CCCC3(c4cccs4)OCCO3)CC2)C1=O	> 100	> 100	> 100	
CCC[C@H](C)[C@H]1NC(=O)[C@@H](NC(=O)[C@@H](CC(C)C)N(C)C(=O)C2CCCN2C(=O)[C@H](C)O)[C@@H](C)OC(=O)[C@H](CC(C)C)N(C)C(=O)[C@@H]2CCCN2C(=O)[C@H](CC(C)C)NC(=O)[C@@H](C)C(=O)[C@H](C(C)C)OC(=O)C[C@@H]1O (stereo partly specified)	0.339		0.0027	
COc1cc([C@@H]2c3cc4c(cc3C[C@H]3COC(=O)[C@@H]32)OCO4)cc(OC)c1OC	> 50	> 10.8	> 50	TGI (DLD-1 colon): > 50 µM; TGI (DMS 114 small cell lung): 0.0167 µM; TGI (DMS 273 small cell lung): > 4.13 µM; TGI (HOP-18 NSCLC): > 50 µM; TGI (M19-MEL melanoma): > 50 µM; TGI (P388 leukemia): > 15.8 µM; TGI (P388/ADR leukemia): 502 nM; GI50 (SN12C renal): 6.7 nM; TGI (SN12K1 renal): > 3.86 µM; TGI (SNB-78 CNS): > 50 µM; GI50 (UACC-62 melanoma): 2.8 nM; TGI (XF 498 CNS): 1.88 µM
O=C1C(C=NCCc2c[nH]c3ccccc23)C(C(F)(F)F)=NN1c1nc2ccccc2s1 (stereo unspecified)	62.9	> 100	43.6	
C[C@]12CC/C(=N\O)C=C1CC[C@@H]1[C@@H]2CC[C@]2(C)C(=N/O)/C(=C/c3cccnc3)C[C@@H]12	79.5	43.5	10.4	
Cc1cc(O)cc(O)c1N=Nc1ccc([N+](=O)[O-])cc1	90.8	54	32.2	

SMILES	TGI (EKVX NSCLC) [µM]	TGI (SN12C renal) [µM]	TGI (UACC-62 melanoma) [µM]	further results
COC(c1ccc(C(C)(C)C)cc1)(c1ccc(C(C)(C)C)cc1)c1cc(C(O)(c2cc(C(OC)(c3ccc(C(C)(C)C)cc3)c3ccc(C(C)(C)C)cc3)c(C)cc2C)c2cc(C(OC)(c3ccc(C(C)(C)C)cc3)c3ccc(C(C)(C)C)cc3)c(C)cc2C)c(C)cc1C	> 100		> 100	
C[C@@H]1C[C@H](O)[C@]2(O)O[C@@H]3C[C@@]4(C=O)[C@@H](CC=C5[C@@H]4CC[C@]4(C)[C@@H](C6=CC(=O)OC6)CC[C@]54O)C[C@H]3O[C@@H]2O1	0.215	0.131		
O=C1N[C@@H]2c3c(csc3Br)C(=O)[C@@H]2O1	> 100	> 100	> 100	
CC(C)(CO)N1C(=O)c2ccccc2C1(O)c1ccc(Cl)cc1 (stereo unspecified)	> 100	> 100	> 100	
Cc1cc(C)c2c(n1)S(=O)(=O)N(CCCN1CCN(c3cccc(C(F)(F)F)c3)CC1)/C(=C(\O)c1ccc(Cl)cc1)C2=O	10.7	13.8	18.3	
C=CCCCC12CCCc3cccc(c31)NC2=O (stereo unspecified)	37.3	> 100	31.3	TGI (DLD-1 colon): 42.4 µM; TGI (DMS 114 small cell lung): 33 µM; TGI (KM20L2 colon): 47 µM; TGI (RXF-631 renal): 55.6 µM; TGI (XF 498 CNS): 41.7 µM
O=c1nc2c(c(-c3cccc(Cl)c3)[nH]1)COC/C2=C\c1cccc(Cl)c1	> 100	> 100	> 100	
O=C1/C(=C/c2ccc([N+](=O)[O-])cc2)CNC/C1=C\c1ccc([N+](=O)[O-])cc1	33.9	15.5	29.5	
CCOc1ccc(N=C/C=C(\Cl)c2ccc3ccccc3c2)cc1	62.1	33.9	31	
COC1C=CC23c4cc5c(cc4C(O)OC2CN(C)C3C1)OCO5 (stereo unspecified)	32.9	7.88	58.8	TGI (DMS 114 small cell lung): 6.05 µM; TGI (DMS 273 small cell lung): 6.87 µM; TGI (KM20L2 colon): 9.1 µM; TGI (LXFL 529 NSCLC): 9.55 µM; TGI (M19-MEL melanoma): 8.82 µM
O=C(O[C@H](/C=C/c1ccccc1)P1(=O)N(Cc2ccccc2)[C@@H]2CCCC[C@H]2N1Cc1ccccc1)c1ccccc1	68	9.68	40	
CCOC(=O)C1C(=O)CC(O)(c2ccccc2)C(C(=O)OCC)C1c1ccc(OC)cc1 (stereo unspecified)	> 100	> 100	> 100	
C/C(=N/NC(=S)Nc1cccc(C)c1)c1ccccn1	2.3	6.61	2.92	
O=C1C(Br)=Cc2c(Cl)sc(Cl)c21	22.2	18.4	27.2	
CCOC(=O)C(=O)N1C(C)=C(C(=O)OCC)CC(C(=O)OCC)=C1C	> 100	> 100	> 100	
O=C(O)CNC(=O)c1ccc([As](=O)(O)O)cc1	> 100	> 100	> 100	
N#Cc1c(OCCF)c2ccccc2n2c1nc1ccccc12	> 100		> 100	
Cc1cccc(N(CCC#N)S(=O)(=O)c2ccccc2)c1	> 100	> 100	> 100	
